# Like-named read-outs stand apart in the source and are kept apart here.
# Assays:
# [1] = target: GDP-bound HRAS wild-type protein (Homo sapiens, UniProt P01112); assay: Binding to HRAS by surface plasmon resonance (SPR), Single Cycle Kinetics; conditions: SPR; for HRAS/KRAS (ratio of KD value for GDP-bound HRAS wild-type protein to KD value for KRAS): KD ratio class; for HRAS/KRAS (ratio of KD value for HRAS to KD value for KRAS): GDP-bound HRAS wild-type vs GDP-bound KRAS wild-type
# [2] = tested on: human lung cancer strain NCI-H441
# [3] = target: GDP-bound NRAS wild-type protein (Homo sapiens, UniProt P01111); assay: Binding to NRAS by surface plasmon resonance (SPR), Single Cycle Kinetics; conditions: SPR; for NRAS/KRAS (ratio of KD value for GDP-bound NRAS wild-type protein to KD value for KRAS): KD ratio class; for NRAS/KRAS (ratio of KD value for NRAS to KD value for KRAS): GDP-bound NRAS wild-type vs GDP-bound KRAS wild-type
# Sequence of GDP-bound NRAS wild-type protein (P01111 whole entry): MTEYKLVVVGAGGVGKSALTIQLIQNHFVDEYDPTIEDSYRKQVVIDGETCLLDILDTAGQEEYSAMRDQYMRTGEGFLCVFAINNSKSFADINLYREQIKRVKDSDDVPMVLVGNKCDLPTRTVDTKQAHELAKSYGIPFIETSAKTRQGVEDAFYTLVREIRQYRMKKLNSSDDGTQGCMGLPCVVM
# [4] = tested on: human lung cancer strain NCI-H441; assay: cells; conditions: NCI-H441, 96 h, read-out: NCI-H441 IC50 (nM)
# Sequence of GDP-bound HRAS wild-type protein (P01112 whole entry): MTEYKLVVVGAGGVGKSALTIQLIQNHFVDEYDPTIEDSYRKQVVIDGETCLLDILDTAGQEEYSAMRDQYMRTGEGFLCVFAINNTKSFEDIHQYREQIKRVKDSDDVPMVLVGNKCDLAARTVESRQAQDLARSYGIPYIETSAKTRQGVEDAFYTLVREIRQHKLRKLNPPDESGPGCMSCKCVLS
Structure (SMILES),IC50 [2] [nM],"IC50 ([2]; read-out: NCI-H441 IC50, NCI-H441 cells, 4 days, CellTiter-Glo) [nM]",IC50 [4] [nM],HRAS/KRAS (ratio of KD value for GDP-bound HRAS wild-type protein to KD value for KRAS) [1],NRAS/KRAS (ratio of KD value for GDP-bound NRAS wild-type protein to KD value for KRAS) [3],HRAS/KRAS (ratio of KD value for HRAS to KD value for KRAS) [1],NRAS/KRAS (ratio of KD value for NRAS to KD value for KRAS) [3]
CC[C@H](C)[C@@H]1NC(=O)[C@H](CC2CCCC2)N(C)C(=O)C[C@@H](C(=O)N(C)C)N(C)C(=O)[C@H](C2CCCC2)N(C)C(=O)C2(CCC2)NC(=O)[C@@H]2[C@@H](OCC(F)F)CCN2C(=O)[C@H](CCc2cc(F)c(C(F)(F)F)c(F)c2)NC(=O)CN(C)C(=O)[C@H](Cc2ccc(C)cc2)N2CC/C=C\C[C@H](C2=O)N(C)C(=O)CN(C)C1=O [PP1536],24.8,,,B (a compound having 3 or more and less than 10 is denoted as B),A (a compound having 10 or more and less than 20 is denoted as A),,
CCO[C@@H]1C[C@H]2C(=O)NC3(CCC3)C(=O)N(C)[C@@H](C3CCCC3)C(=O)N(C)[C@@H](C(C)C)CC(=O)N(C)[C@@H](CC3CC3)C(=O)N[C@@H]([C@@H](C)CC)C(=O)N(C)CC(=O)N(C)[C@H]3C/C=C\CCN(C3=O)[C@@H](Cc3ccc(C(F)(F)F)cc3)C(=O)N(C)CC(=O)N[C@@H](CCc3cc(F)c(C(F)(F)F)c(F)c3)C(=O)N2C1 [PP1596],,18.1,,,,,
CCO[C@@H]1C[C@H]2C(=O)NC3(CC(C)(C)C3)C(=O)N(C)[C@@H](C(CC)CC)C(=O)N3CCC[C@@H]3CC(=O)N(C)[C@@H](CC)C(=O)N[C@@H]([C@@H](C)CC)C(=O)N(C)CC(=O)N(C)[C@H]3C/C=C\CCN(C3=O)[C@@H](Cc3ccc(C(F)(F)F)cc3)C(=O)N(C)CC(=O)N[C@@H](CCc3cc(F)c(C(F)(F)F)c(F)c3)C(=O)N2C1 [PP1605],,,31.6,A (a compound having 10 or more and less than 20 is denoted as A),A (a compound having 10 or more and less than 20 is denoted as A),,
CCO[C@@H]1C[C@H]2C(=O)NC3(CC(C)(C)C3)C(=O)N(C)[C@@H](C3CCCC3)C(=O)N3CCC[C@@H]3CC(=O)N(C)[C@@H](CC)C(=O)N[C@@H]([C@@H](C)CC)C(=O)N(C)CC(=O)N(C)[C@H]3C/C=C\CCN(C3=O)[C@@H](Cc3ccc(C(F)(F)F)cc3)C(=O)N(C)CC(=O)N[C@@H](CCc3cc(F)c(C(F)(F)F)c(F)c3)C(=O)N2C1 [PP1606],,,12.6,B (a compound having 3 or more and less than 10 is denoted as B),B (a compound having 3 or more and less than 10 is denoted as B),,

# Continued, in another order:
IC50 [2] [nM],"IC50 ([2]; read-out: NCI-H441 IC50, NCI-H441 cells, 4 days, CellTiter-Glo) [nM]",IC50 [4] [nM],Structure (SMILES),HRAS/KRAS (ratio of KD value for GDP-bound HRAS wild-type protein to KD value for KRAS) [1],NRAS/KRAS (ratio of KD value for GDP-bound NRAS wild-type protein to KD value for KRAS) [3],HRAS/KRAS (ratio of KD value for HRAS to KD value for KRAS) [1],NRAS/KRAS (ratio of KD value for NRAS to KD value for KRAS) [3]
4.3,,,CC[C@H](C)[C@@H]1NC(=O)[C@H](CC2CC2)N(C)C(=O)C[C@@H](C(=O)N(C)C)N(C)C(=O)[C@H](C2CCCC2)N(C)C(=O)C2(CC(C)(C)C2)NC(=O)[C@@H]2C[C@H](C)CN2C(=O)[C@H](CCc2cc(F)c(C(F)(F)F)c(F)c2)NC(=O)CN(C)C(=O)[C@H](Cc2ccc(C(F)(F)F)cc2)N2CC/C=C\C[C@@H](C2=O)N(C)C(=O)CN(C)C1=O [PP1660],,,A (a compound having 10 or more and less than 20 is denoted as A),A (a compound having 10 or more and less than 20 is denoted as A)
5,,,CCC[C@H]1C(=O)N[C@@H]([C@@H](C)CC)C(=O)N(C)CC(=O)N(C)[C@H]2C/C=C\CCN(C2=O)[C@@H](Cc2ccc(C(F)(F)F)cc2)C(=O)N(C)CC(=O)N[C@@H](CCc2ccc(C(F)(F)F)c(OC)c2)C(=O)N2C[C@H](OCC)C[C@H]2C(=O)NC2(CC(C)(C)C2)C(=O)N(C)[C@@H](C2CCCC2)C(=O)N(C)[C@H](C(=O)N(C)CC)CC(=O)N1C [PP1676],,,A (a compound having 10 or more and less than 20 is denoted as A),A (a compound having 10 or more and less than 20 is denoted as A)
3.4,,,C#CC[C@H]1C(=O)N[C@@H]([C@@H](C)CC)C(=O)N(C)CC(=O)N(C)[C@H]2C/C=C\CCN(C2=O)[C@@H](Cc2ccc(C(F)(F)F)cc2)C(=O)N(C)CC(=O)N[C@@H](CCc2ccc(C(F)(F)F)c(OC)c2)C(=O)N2C[C@H](OCC)C[C@H]2C(=O)NC2(CC(C)(C)C2)C(=O)N(C)[C@@H](C2CCCC2)C(=O)N(C)[C@H](C(=O)N(C)C)CC(=O)N1C [PP1677],,,A (a compound having 10 or more and less than 20 is denoted as A),A (a compound having 10 or more and less than 20 is denoted as A)

# Source: patent US20250230193A1, “CYCLIC COMPOUND HAVING SELECTIVE KRAS INHIBITORY EFFECT ON HRAS AND NRAS” (CHUGAI SEIYAKU KABUSHIKI KAISHA, priority 2022, published 2025)
